Paper PMC12935919 (Frontiers in Pharmacology, 2026)

Test system: C2C12 myotubes
Assay: DEX-induced muscle atrophy model, Western blot
Assay type: cell-based
Settings: 10 μM DEX 24 h, alone or with 10 or 100 μM Myoki
Procedure: To induce C2C12 myotube differentiation, myoblasts were seeded in 6-well plates at 5 × 10^5 cells per well. Once reaching 90% confluency, they were cultured in DMEM supplemented with 2% horse serum (Thermo Fisher Scientific) and 1% penicillin-streptomycin. […] Differentiation was observed using an optical microscope (LEICA, 100×). Myotube morphology (length and diameter) was quantified in ImageJ (NIH) using the same images: myotube length was measured by tracing the long axis of each myotube (end-to-end), and myotube diameter was measured as the short-axis width at three positions along each myotube; the mean of the three width values was recorded as the diameter. For each experimental group, three randomly captured images (fields) were analyzed, and at least 15–20 myotubes per image were quantified under identical imaging settings.
Treated C2C12 cells (5 × 10^5 cells/well) were harvested in lysis buffer (Sigma-Aldrich, 2910) and centrifuged at 12,000 g for 10 min; proteins in the supernatant were collected. Protein concentrations were measured using the BCA Protein Assay Kit (Thermo Fisher Scientific). Each 20 μg sample was separated using 10% SDS–PAGE and transferred onto a polyvinylidene fluoride membrane (Millipore, Burlington, MA, USA). Non-specific binding was blocked with 5% non-fat dry milk for 1 h. The membranes were incubated overnight with primary antibodies: Anti-Myf5 (Abcam, ab125078), Anti-Myf6 (Abcam, ab182842), Anti-MyoD (Santa Cruz, sc-377460), Anti-MyoG (Santa Cruz, sc-52903), Anti-α-actinin (Santa Cruz, sc-17829), Anti-MYH3 (Santa Cruz, sc-53091), Anti-p-mTOR (Ser2448) (CST, #5536), Anti-p-Akt (Ser473) (CST, #9271), Anti-p-p70 S6 Kinase (Thr389) (CST, #9205), Anti-myostatin (Abcam, ab124721), Anti-atrogin-1/MAFbx (Santa Cruz, sc-166806), and Anti-MuRF1 (Santa Cruz, sc-398608). Membranes were then incubated for 1 h with HRP-conjugated secondary antibodies. Blot images were captured with the ECL system (Amersham, UK) and quantified using ImageJ.

Structure (SMILES): C[C@@H]1C[C@H]2[C@@H]3CCC4=CC(=O)C=C[C@]4(C)[C@@]3(F)[C@@H](O)C[C@]2(C)[C@@]1(O)C(=O)CO [DEX, dexamethasone, reference compound]
- MuRF1 expression: significant increase
- atrogin-1/MAFbx expression: significant increase
- expression levels of differentiated muscle fiber structural proteins: significantly reduced
- phosphorylation levels of muscle growth signaling proteins (Akt, mTOR, p70S6K): significantly reduced
